In the supplement of paper PMC6723410:

What was measured:
GUMC-403 [1] = test: AC50 for reduction of cell viability; higher = less potent; details: library / dose series: MIPE library, 11-point 1:3 dilution; 48 h
GUMC-403 [2] = test: viability at highest tested concentration (max response) relative to DMSO (% of DMSO control); higher = less cytotoxic; details: library / dose series: MIPE library, 11-point 1:3 dilution, 48 h
Outline: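 Conditionally reprogrammed GUMC-403 papilloma cells from a patient were plated at 700/well in 5 μL F + Y medium in 1536-well plates and left overnight at 37 °C. A pin tool then added 23 nL of library compounds as an 11-point 1:3 series, for 48 h. CellTiter-Glo luminescence was read on a ViewLux and scaled with vehicle wells set to 100% and empty wells to 0%. Each value gives viability at the highest tested concentration relative to vehicle control.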

c1cncc(CN2CCC(n3ncc4c(N5CCOCC5)nc(-c5ccc6[nH]ccc6c5)nc43)CC2)c1
AC50 for reduction of cell viability (GUMC-403 [1]): 332 nM | viability (GUMC-403 [2]; top concentration 46.1 µM): 62.6

CCC[C@H](NC(=O)/C(C#N)=C/c1cccc(Br)n1)c1ccccc1
AC50 for reduction of cell viability (GUMC-403 [1]): 16600 nM | viability (GUMC-403 [2]; top concentration 46.1 µM): 19.1

N[S+](=O)([O-])c1cccc2c1C(=O)c1cccc(O)c1C2=O
AC50 for reduction of cell viability (GUMC-403 [1]): 13200 nM | viability (GUMC-403 [2]; top concentration 46.1 µM): 4.44

CC(C)(O)Cn1c(NC(=O)c2ccc(-c3cn[nH]c3)s2)nc2cc(CN3CCOCC3)ccc21
AC50 for reduction of cell viability (GUMC-403 [1]): 2350 nM | viability (GUMC-403 [2]; top concentration 46.1 µM): 5.55

CC1(C)CC(=O)c2c(C(F)(F)F)nn(-c3ccc(C(N)=O)c(NC4CCC(O)CC4)c3)c2C1 (centres undefined)
AC50 for reduction of cell viability (GUMC-403 [1]): 296 nM | viability (GUMC-403 [2]; top concentration 46.1 µM): 67.7

C[C@H]1O[C@H](C[C@H](O)[C@@H]1O)O[C@H]2[C@@H](O)C[C@@H](O[C@@H]2C)O[C@H]3[C@@H](O)C[C@@H](O[C@@H]3C)O[C@H]4CC[C@@]5(C)[C@H](CC[C@@H]6[C@@H]5C[C@@H](O)[C@]7(C)[C@H](CC[C@]67O)C/8=C/C(=O)OC8)C4
AC50 for reduction of cell viability (GUMC-403 [1]): 191 nM | viability (GUMC-403 [2]; top concentration 92.2 µM): 48.5

Clc1ccc(C(c2ccc(Cl)cc2)[n+]2ccn(CC(OCc3ccc(Cl)cc3Cl)c3ccc(Cl)cc3Cl)c2)cc1 (centres undefined)
AC50 for reduction of cell viability (GUMC-403 [1]): 20900 nM | viability (GUMC-403 [2]; top concentration 46.1 µM): 25.1

Nc1ncnc2c1c(-c1cnc3[nH]ccc3c1)nn2C1CCCC1
AC50 for reduction of cell viability (GUMC-403 [1]): 8330 nM | viability (GUMC-403 [2]; top concentration 46.1 µM): 7.41

Cc1cc(Nc2cc(NC(=O)c3c(Cl)cccc3Cl)ccn2)nc(N)n1
AC50 for reduction of cell viability (GUMC-403 [1]): 20900 nM | viability (GUMC-403 [2]; top concentration 46.1 µM): 13

CNC(=O)c1cccc(-c2ccc3c(N4CCOC[C@@H]4C)nc(N4CCOC[C@@H]4C)nc3n2)c1
AC50 for reduction of cell viability (GUMC-403 [1]): 23.5 nM | viability (GUMC-403 [2]; top concentration 46.1 µM): 59

Cc1[nH]c2ccccc2c1CCNCc1ccc(/C=C/C(=O)NO)cc1
AC50 for reduction of cell viability (GUMC-403 [1]): 2640 nM | viability (GUMC-403 [2]; top concentration 46.1 µM): 38.2

C=CC(=O)Nc1cccc(Nc2nc(NC3CCC(N(C)C)CC3)nc3c2ncn3C(C)C)c1 (centres undefined)
AC50 for reduction of cell viability (GUMC-403 [1]): 2960 nM | viability (GUMC-403 [2]; top concentration 46.1 µM): 8.03

CC(C)C[C@H](NC(=O)CNC(=O)c1cc(Cl)ccc1Cl)B1OC(=O)CC(CC(=O)O)(C(=O)O)O1 (some centres undefined)
AC50 for reduction of cell viability (GUMC-403 [1]): 2350 nM | viability (GUMC-403 [2]; top concentration 46.1 µM): 38.8

Nc1cccc(-c2cc3c(Oc4cccc(O)c4)ncnc3[nH]2)c1
AC50 for reduction of cell viability (GUMC-403 [1]): 8330 nM | viability (GUMC-403 [2]; top concentration 46.1 µM): 58

Oc1cccc(-c2nc(N3CCOCC3)c3oc4ncccc4c3n2)c1
AC50 for reduction of cell viability (GUMC-403 [1]): 762 nM | viability (GUMC-403 [2]; top concentration 92.2 µM): 28.3

CC/1=C(\O)C(=O)\C=C2/C1=C/C=C3\[C@@]2(C)CC[C@@]4(C)[C@@H]5C[C@@](C)(CC[C@]5(C)CC[C@]34C)C(O)=O
AC50 for reduction of cell viability (GUMC-403 [1]): 8330 nM | viability (GUMC-403 [2]; top concentration 46.1 µM): 6.06

N=C(NCCCCCCNC(=N)NC(=N)Nc1ccc(Cl)cc1)NC(=N)Nc1ccc(Cl)cc1
AC50 for reduction of cell viability (GUMC-403 [1]): 26400 nM | viability (GUMC-403 [2]; top concentration 46.1 µM): 5.73

CN1\N=C(N)/C2=C[N]([C@@H]3O[C@H](CO[P](O)(O)=O)[C@@H](O)[C@H]3O)C4=C2C1=NC=N4
AC50 for reduction of cell viability (GUMC-403 [1]): 1480 nM | viability (GUMC-403 [2]; top concentration 46.1 µM): 57.8

NCC(=O)Nc1ccc(-n2nc(C(F)(F)F)cc2-c2ccc3c(ccc4ccccc43)c2)cc1
AC50 for reduction of cell viability (GUMC-403 [1]): 26400 nM | viability (GUMC-403 [2]; top concentration 46.1 µM): 1.75

C/C(=N\NC(=S)N1CCC1)c1ccccn1
AC50 for reduction of cell viability (GUMC-403 [1]): 4180 nM | viability (GUMC-403 [2]; top concentration 46.1 µM): 44

C[C@@H]1O[C@@H](O[C@H]2C[C@@H](O)[C@]3(CO)[C@H]4[C@H](O)C[C@]5(C)[C@@H](C6=CC(=O)OC6)CC[C@]5(O)[C@@H]4CC[C@]3(O)C2)[C@H](O)[C@H](O)[C@H]1O
AC50 for reduction of cell viability (GUMC-403 [1]): 29.6 nM | viability (GUMC-403 [2]; top concentration 46.1 µM): 75.4

CCn1nnc2c(N3CCOCC3)nc(-c3ccc(NC(=O)Nc4ccc(C(=O)N5CCN(C)CC5)cc4)cc3)nc21
AC50 for reduction of cell viability (GUMC-403 [1]): 9.35 nM | viability (GUMC-403 [2]; top concentration 46.1 µM): 54.4

CCc1cnn2c(NCc3ccc[n+]([O-])c3)cc(N3CCCC[C@H]3CCO)nc12
AC50 for reduction of cell viability (GUMC-403 [1]): 46.9 nM | viability (GUMC-403 [2]; top concentration 46.1 µM): 62.2

Cc1cnc(Nc2ccc(N3CCN(C)CC3)cc2)nc1Nc1cccc([S+](=O)([O-])NC(C)(C)C)c1
AC50 for reduction of cell viability (GUMC-403 [1]): 16600 nM | viability (GUMC-403 [2]; top concentration 46.1 µM): 30.2

CC(C)C[C@@H](C=O)NC(=O)[C@H](CC(C)C)NC(=O)[C@H](CC(C)C)NC(=O)OCc1ccccc1
AC50 for reduction of cell viability (GUMC-403 [1]): 10500 nM | viability (GUMC-403 [2]; top concentration 46.1 µM): 9.05

Cn1c2ccccc2c2c3c(c4c5ccccc5n(CCC#N)c4c21)CNC3=O
AC50 for reduction of cell viability (GUMC-403 [1]): 7430 nM | viability (GUMC-403 [2]; top concentration 46.1 µM): 65.1

CN1CC[C@H]([C@@H](O)C1)C2=C(O)C=C(O)C3=C2O\C(=C/C3=O)C4=CC=CC=C4Cl
AC50 for reduction of cell viability (GUMC-403 [1]): 132 nM | viability (GUMC-403 [2]; top concentration 46.1 µM): 61.2

Cc1ccc(NC(=O)C2(c3ccc4c(c3)OC(F)(F)O4)CC2)nc1-c1cccc(C(=O)O)c1
AC50 for reduction of cell viability (GUMC-403 [1]): 1660 nM | viability (GUMC-403 [2]; top concentration 46.1 µM): 6.42

CC(C)C[C@H](NC(=O)[C@H](CCc1ccccc1)NC(=O)CN1CCOCC1)C(=O)N[C@@H](Cc1ccccc1)C(=O)N[C@@H](CC(C)C)C(=O)[C@@]1(C)CO1
AC50 for reduction of cell viability (GUMC-403 [1]): 1050 nM | viability (GUMC-403 [2]; top concentration 46.1 µM): 6.18

Cc1nc(N)ncc1-c1nc(N2CCOCC2)c2sc(C(C)(C)O)cc2n1
AC50 for reduction of cell viability (GUMC-403 [1]): 332 nM | viability (GUMC-403 [2]; top concentration 46.1 µM): 45.7

O=C(NCCCNc1nc(Nc2cccc(NC(=O)N3CCCC3)c2)ncc1I)c1cccs1
AC50 for reduction of cell viability (GUMC-403 [1]): 10500 nM | viability (GUMC-403 [2]; top concentration 46.1 µM): 3.39

C[C@H](NCc1ccc2c(c1)nc(NC(=O)c1ccc(-c3cn[nH]c3)s1)n2CCc1ccccc1)C(C)(C)C
AC50 for reduction of cell viability (GUMC-403 [1]): 3720 nM | viability (GUMC-403 [2]; top concentration 46.1 µM): 8.07

CNC(=O)c1ccc(N2C(=S)N(c3cnc(C#N)c(C(F)(F)F)c3)C(=O)C23CCC3)cc1F
AC50 for reduction of cell viability (GUMC-403 [1]): 13200 nM | viability (GUMC-403 [2]; top concentration 46.1 µM): 16.6

Cc1cc(Nc2ncc3c(n2)N(C)C(=O)N(c2cc(NC(=O)c4cccc(C(F)(F)F)c4)ccc2C)C3)n(C)n1
AC50 for reduction of cell viability (GUMC-403 [1]): 743 nM | viability (GUMC-403 [2]; top concentration 46.1 µM): 53.5

CCN1CCN(CC1)CC(=O)NC2=CC=C(C3=C2C4=C(S3)C=CC=C4)C5=C6O\C(=C/C(=O)C6=CC=C5)N7CCOCC7
AC50 for reduction of cell viability (GUMC-403 [1]): 2960 nM | viability (GUMC-403 [2]; top concentration 46.1 µM): 58.7

CC(C)C[C@H](NC(=O)[C@@H](NC(=O)c1cccc(-c2ccccc2)n1)[C@@H](C)O)B(O)O
AC50 for reduction of cell viability (GUMC-403 [1]): 1870 nM | viability (GUMC-403 [2]; top concentration 46.1 µM): 26.3

CN(C)c1ccc(C(=O)NCCCCCCC(=O)NO)cc1
AC50 for reduction of cell viability (GUMC-403 [1]): 18700 nM | viability (GUMC-403 [2]; top concentration 46.1 µM): 33.9

C[S+](=O)([O-])N1CCc2c(-c3cnc(N)nc3)nc(N3CCOCC3)nc21
AC50 for reduction of cell viability (GUMC-403 [1]): 332 nM | viability (GUMC-403 [2]; top concentration 46.1 µM): 46.2

CC[C@@H]1C(=O)N(C)c2cnc(Nc3ccc(C(=O)NC4CCC(N5CCN(CC6CC6)CC5)CC4)cc3OC)nc2N1C(C)C (some centres undefined)
AC50 for reduction of cell viability (GUMC-403 [1]): 20900 nM | viability (GUMC-403 [2]; top concentration 46.1 µM): 6.26

CCN1CCN(Cc2ccc(-c3cc4c(N[C@H](C)c5ccccc5)ncnc4[nH]3)cc2)CC1
AC50 for reduction of cell viability (GUMC-403 [1]): 372 nM | viability (GUMC-403 [2]; top concentration 46.1 µM): 69

CN(C)C1CCN(C(=O)c2ccc(NC(=O)Nc3nc(N4CCOCC4)nc(N4CCOCC4)n3)cc2)CC1
AC50 for reduction of cell viability (GUMC-403 [1]): 37.2 nM | viability (GUMC-403 [2]; top concentration 46.1 µM): 44.5

CCNC(=O)c1noc(-c2cc(C(C)C)c(O)cc2O)c1-c1ccc(CN2CCOCC2)cc1
AC50 for reduction of cell viability (GUMC-403 [1]): 296 nM | viability (GUMC-403 [2]; top concentration 46.1 µM): 74.5
